Assays:
Format in all cases: functional
Conditions in all cases: read-out: LC50 (the source's name)
T98G = test: Compound was evaluated for cytotoxicity against human glioblastoma (T98G) cell line
D283 Med = test: Compound was evaluated for cytotoxicity against human medulloblastoma (D283 Med) cell line
A 172 = test: Compound was evaluated for cytotoxicity against human glioblastoma (A172) cell line

| Compound | CC50 (T98G) [µM] | CC50 (D283 Med) [µM] | CC50 (A 172) [µM] |
| --- | --- | --- | --- |
| Cc1ccc2c(c1)C(C)(C)[C@H]1CCN3Cc4ccccc4C[C@H]3[C@H]1N2 | 20 | 20 | 25 |
| CC1(C)c2ccccc2N[C@@H]2[C@@H]3Cc4ccccc4CN3CC[C@@H]21 | 14 | 22 | 45 |
| C=C(C)[C@H]1CCN2Cc3ccccc3C[C@H]2[C@H]1NCc1ccc(Cl)cc1 | 42 | 29 | 55 |
| Cc1cccc2c1N[C@@H]1[C@@H]3Cc4ccccc4CN3CC[C@@H]1C2(C)C | 21 | 20 | 31 |
| CC1(C)c2cc(Cl)ccc2N[C@@H]2[C@@H]3Cc4ccccc4CN3CC[C@@H]21 | 12 | 8 | 22 |
| CC1(C)c2cc(C(F)(F)F)ccc2N[C@@H]2[C@@H]3Cc4ccccc4CN3CC[C@@H]21 | 13 | 17 | 20 |
| COc1ccc2c(c1)C(C)(C)[C@H]1CCN3Cc4ccccc4C[C@H]3[C@H]1N2 | 35 | 25 | 42 |

Reference: ChEMBL document CHEMBL1131267, “Diastereoselective synthesis of octahydro-14H-benzo[g]quinolino-[2,3-a]quinolidines. Improved cytotoxic activity against human brain tumor cell lines as a result of the increased rigidity of the molecular backbone” (1998)
